Laboratory results taken from patent US20170000133A1, “BENZOXABOROLE FUNGICIDES” (SYNGENTA PARTICIPATIONS AG, priority 2013, published 2017).

What was measured:
[1] = test system: Pythium ultimum; assay: Pythium ultimum / liquid culture (seedling damping off); type: cell-based; conditions: Globisporangium ultimum; 200 ppm; potato dextrose broth, 24° C., 2-3 days after application; read-out: disease control (inhibition of growth determined photometrically)
[2] = test system: Monographella nivalis (Microdochium nivale); assay: Monographella nivalis (Microdochium nivale) / liquid culture (foot rot cereals); type: cell-based; conditions: PDB potato dextrose broth, 24° C., 4-5 days after application, read-out: disease control (inhibition of growth determined photometrically)
[3] = test system: Plasmopara viticola; assay: whole plant or invertebrate; type: in vivo; conditions: foliar, read-out: disease control
[4] = test system: Gaeumannomyces graminis; assay: Gaeumannomyces graminis / liquid culture (take-all of cereals); type: cell-based; conditions: PDB potato dextrose broth, 24° C., 4-5 days after application, read-out: disease control (inhibition of growth determined photometrically)
Protocol: 14. Gaeumannomyces graminis/Liquid Culture (Take-all of Cereals): Mycelial fragments of the fungus from cryogenic storage were directly mixed into nutrient broth (PDB potato dextrose broth). After placing a DMSO solution of test compound into a 96-well microtiter plate at an application rate of 200 ppm, the nutrient broth […], containing the fungal spores is added. The test plates were incubated at 24° C. and the inhibition of growth was determined photometrically 4-5 days after application.

Compound	inhibition at 200 ppm [1] [%]	inhibition at 200 ppm [2] [%]	pest or weed control at 200 ppm [3] [%]	inhibition at 200 ppm [4] [%]
C=CC(=O)OCC(C)OC(=O)c1cc2c(cc1F)COB2O (centres unmarked) [Compound 372]	≥ 80	≥ 80	–	–
O=C(NCc1ccccc1F)c1ccc2c(c1)B(O)OC2 [Compound 262]	≥ 80	–	≥ 80	–
O=C(NCc1ccccc1OC(F)(F)F)c1cc2c(cc1Cl)COB2O [Compound 95]	–	≥ 80	≥ 80	–
O=C(Nc1ccc(-n2cccc2)cc1)c1cc2c(cc1Cl)COB2O [Compound 125]	≥ 80	–	–	≥ 80
O=C(Nc1cc(C(F)(F)F)ccc1N1CCOCC1)c1ccc2c(c1)B(O)OC2 [Compound 291]	–	–	–	≥ 80
N#CCCOC(=O)c1ccc2c(c1)B(O)OC2 [Compound 357]	≥ 80	–	≥ 80	–
N#CCOC(=O)c1cc2c(cc1Cl)COB2O [Compound 213]	≥ 80	–	≥ 80	–
O=C(OCCc1ccc(Cl)cc1Cl)c1cc2c(cc1Cl)COB2O [Compound 190]	–	≥ 80	–	≥ 80
N#CCCOC(=O)c1cc2c(cc1F)COB2O [Compound 420]	≥ 80	–	≥ 80	–
O=C(NCc1ccccc1C(F)(F)F)c1cc2c(cc1Cl)COB2O [Compound 99]	≥ 80	≥ 80	–	–
COC(=O)c1sccc1NC(=O)c1ccc2c(c1)B(O)OC2 [Compound 308]	–	≥ 80	≥ 80	–
O=C(Nc1ccc(S(=O)(=O)Nc2ccccn2)cc1)c1cc2c(cc1Cl)COB2O [Compound 143]	≥ 80	–	≥ 80	–
O=C(Nc1ccc(Oc2ccccc2)nc1)c1cc2c(cc1F)COB2O [Compound 185]	≥ 80	–	≥ 80	–
O=C(NCc1ccccc1OC(F)(F)F)c1ccc2c(c1)B(O)OC2 [Compound 273]	≥ 80	–	≥ 80	–
O=C(Nc1ccccc1N1CCOCC1)c1cc2c(cc1F)COB2O [Compound 170]	≥ 80	–	≥ 80	–
O=C(Nc1ccc(S(=O)(=O)Nc2ccccn2)cc1)c1cc2c(cc1F)COB2O [Compound 174]	≥ 80	–	≥ 80	–
CC(C)c1ccc(NC(=O)c2ccc3c(c2)B(O)OC3)cc1 [Compound 279]	≥ 80	≥ 80	≥ 80	–
O=C(OC1COC1)c1cc2c(cc1F)COB2O [Compound 425]	≥ 80	–	≥ 80	≥ 80
O=C(OCc1ccc(C(F)(F)F)cc1Cl)c1cc2c(cc1Cl)COB2O [Compound 200]	–	≥ 80	–	≥ 80
O=C(NCc1cccc(Cl)c1)c1ccc2c(c1)B(O)OC2 [Compound 268]	≥ 80	–	≥ 80	–
COc1ccc(NC(=O)c2ccc3c(c2)B(O)OC3)c(OC)c1 [Compound 283]	≥ 80	–	≥ 80	–
COCCOCCOCCOC(=O)c1cc2c(cc1F)COB2O [Compound 432]	≥ 80	–	–	–

Compound	inhibition at 200 ppm [1] [%]	inhibition at 200 ppm [2] [%]	pest or weed control at 200 ppm [3] [%]	inhibition at 200 ppm [4] [%]
Cc1cccnc1NC(=O)c1cc2c(cc1Cl)COB2O [Compound 151]	≥ 80	–	–	–
O=C(OC1COC1)c1ccc2c(c1)B(O)OC2 [Compound 363]	≥ 80	–	–	–
O=C(Nc1ccc(Oc2ccccc2)nc1)c1ccc2c(c1)B(O)OC2 [Compound 306]	≥ 80	–	≥ 80	–
O=C(NCCOc1ccccc1)c1cc2c(cc1F)COB2O [Compound 117]	≥ 80	–	–	–
O=C(Nc1cccc(F)c1)c1ccc2c(c1)B(O)OC2 [Compound 285]	≥ 80	–	≥ 80	–
O=C(NCc1ccc(Cl)nc1)c1cc2c(cc1Cl)COB2O [Compound 105]	≥ 80	–	–	–
O=C(NCc1ccc(-n2cccn2)cc1)c1ccc2c(c1)B(O)OC2 [Compound 272]	≥ 80	–	–	–
O=C(OCCCC(=O)N1CCCC1)c1ccc2c(c1)B(O)OC2 [Compound 346]	≥ 80	–	–	–
CC(C#N)OC(=O)c1cc2c(cc1F)COB2O (centres unmarked) [Compound 376]	≥ 80	–	≥ 80	–
COC(=O)c1cc2cc(NC(=O)c3ccc4c(c3)B(O)OC4)ccc2s1 [Compound 288]	≥ 80	–	–	–
O=C(NCCC1OCCO1)c1cc2c(cc1F)COB2O [Compound 92]	≥ 80	–	–	–
O=C(NCCC(F)(F)F)c1ccc2c(c1)B(O)OC2 [Compound 246]	≥ 80	–	–	–
Cc1nnc(NC(=O)c2cc3c(cc2F)COB3O)s1 [Compound 184]	≥ 80	–	≥ 80	–
CC(CN1CCOCC1)OC(=O)c1cc2c(cc1F)COB2O (centres unmarked) [Compound 383]	≥ 80	–	–	–
Cc1cc(O)nc(NC(=O)c2cc3c(cc2Cl)COB3O)n1 [Compound 153]	≥ 80	–	–	–
O=C(Nc1ccc(-n2cccc2)cc1)c1cc2c(cc1F)COB2O [Compound 159]	≥ 80	–	–	–
O=C(NCCc1c[nH]c2ccccc12)c1ccc2c(c1)B(O)OC2 [Compound 274]	≥ 80	–	–	–
C#CC1(NC(=O)c2cc3c(cc2Cl)COB3O)CCCCC1 [Compound 62]	≥ 80	–	–	–
O=C(NC1CCSC1=O)c1cc2c(cc1Cl)COB2O (centres unmarked) [Compound 55]	≥ 80	–	–	–
Cc1cc(=O)oc2cc(NC(=O)c3cc4c(cc3F)COB4O)ccc12 [Compound 172]	≥ 80	–	–	–
O=C(NCC1(O)CCCCC1)c1ccc2c(c1)B(O)OC2 [Compound 247]	≥ 80	–	–	–
O=C(NCc1ccccc1F)c1cc2c(cc1Cl)COB2O [Compound 73]	≥ 80	–	≥ 80	–

Compound	inhibition at 200 ppm [1] [%]	inhibition at 200 ppm [2] [%]	pest or weed control at 200 ppm [3] [%]	inhibition at 200 ppm [4] [%]
CC(NC(=O)c1cc2c(cc1F)COB2O)c1ccccc1 (centres unmarked) [Compound 109]	≥ 80	–	≥ 80	–
COc1ccc(NC(=O)c2cc3c(cc2F)COB3O)c(OC)c1 [Compound 155]	≥ 80	–	≥ 80	–
C#CC1(NC(=O)c2ccc3c(c2)B(O)OC3)CCCCC1 [Compound 254]	≥ 80	–	–	–
CSCCNC(=O)c1cc2c(cc1F)COB2O [Compound 134]	≥ 80	–	–	–
O=C(NCCC1OCCO1)c1ccc2c(c1)B(O)OC2 [Compound 255]	≥ 80	–	–	–
Cc1csc(NC(=O)c2cc3c(cc2F)COB3O)n1 [Compound 176]	≥ 80	–	–	–
O=C(NCCc1cccs1)c1cc2c(cc1Cl)COB2O [Compound 81]	≥ 80	–	–	–
CC(NC(=O)c1ccc2c(c1)B(O)OC2)c1ccccc1 (centres unmarked) [Compound 263]	≥ 80	–	–	–
COc1ccc(-c2ccccc2)cc1NC(=O)c1ccc2c(c1)B(O)OC2 [Compound 289]	≥ 80	–	≥ 80	–
O=C(NCC(O)c1ccc(O)cc1)c1ccc2c(c1)B(O)OC2 (centres unmarked) [Compound 249]	≥ 80	–	–	–
O=C(Nc1cccc(F)c1)c1cc2c(cc1F)COB2O [Compound 157]	≥ 80	–	–	≥ 80
CC(NC(=O)c1cc2c(cc1Cl)COB2O)c1ccccc1 (centres unmarked) [Compound 75]	≥ 80	–	–	–
O=C(NCC1CCCO1)c1cc2c(cc1Cl)COB2O (centres unmarked) [Compound 64]	≥ 80	–	–	–
O=C(NCC1(O)CCCCC1)c1cc2c(cc1F)COB2O [Compound 74]	≥ 80	–	–	–
Cc1cc(=O)oc2cc(NC(=O)c3cc4c(cc3Cl)COB4O)ccc12 [Compound 139]	≥ 80	–	–	≥ 80
O=C(NCCc1c[nH]c2ccccc12)c1cc2c(cc1Cl)COB2O [Compound 97]	≥ 80	–	–	≥ 80
O=C(NCc1ccc(Cl)nc1)c1ccc2c(c1)B(O)OC2 [Compound 276]	≥ 80	–	–	–
O=C(NCCN1CCN(Cc2ccccc2)CC1)c1ccc2c(c1)B(O)OC2 [Compound 278]	≥ 80	–	–	–
O=C(NCCC(F)(F)F)c1cc2c(cc1F)COB2O [Compound 72]	≥ 80	–	–	–
CS(=O)(=O)CCOC(=O)c1cc2c(cc1F)COB2O [Compound 421]	≥ 80	–	–	–
O=C(OC1COC1)c1cc2c(cc1Cl)COB2O [Compound 234]	≥ 80	–	–	–
